Source: ChEMBL document CHEMBL1144945, “Development of progesterone receptor antagonists from 1,2-dihydrochromeno[3,4-f]quinoline agonist pharmacophore” (Bioorg Med Chem Lett, 2003)
Active and inactive are the calls of the source.

Assays:
[1] = target: Estrogen receptor (Homo sapiens) (UniProt Q92731+P03372); assay: Antagonist efficacy for Estrogen receptor; Not active; type: functional
[2] = target: T1, Mineralocorticoid receptor (Homo sapiens, UniProt P08235); assay: Inhibition of antagonist activity towards mineralocorticoid receptor (hMR); Not active; type: functional
T1 sequence (P08235 whole entry): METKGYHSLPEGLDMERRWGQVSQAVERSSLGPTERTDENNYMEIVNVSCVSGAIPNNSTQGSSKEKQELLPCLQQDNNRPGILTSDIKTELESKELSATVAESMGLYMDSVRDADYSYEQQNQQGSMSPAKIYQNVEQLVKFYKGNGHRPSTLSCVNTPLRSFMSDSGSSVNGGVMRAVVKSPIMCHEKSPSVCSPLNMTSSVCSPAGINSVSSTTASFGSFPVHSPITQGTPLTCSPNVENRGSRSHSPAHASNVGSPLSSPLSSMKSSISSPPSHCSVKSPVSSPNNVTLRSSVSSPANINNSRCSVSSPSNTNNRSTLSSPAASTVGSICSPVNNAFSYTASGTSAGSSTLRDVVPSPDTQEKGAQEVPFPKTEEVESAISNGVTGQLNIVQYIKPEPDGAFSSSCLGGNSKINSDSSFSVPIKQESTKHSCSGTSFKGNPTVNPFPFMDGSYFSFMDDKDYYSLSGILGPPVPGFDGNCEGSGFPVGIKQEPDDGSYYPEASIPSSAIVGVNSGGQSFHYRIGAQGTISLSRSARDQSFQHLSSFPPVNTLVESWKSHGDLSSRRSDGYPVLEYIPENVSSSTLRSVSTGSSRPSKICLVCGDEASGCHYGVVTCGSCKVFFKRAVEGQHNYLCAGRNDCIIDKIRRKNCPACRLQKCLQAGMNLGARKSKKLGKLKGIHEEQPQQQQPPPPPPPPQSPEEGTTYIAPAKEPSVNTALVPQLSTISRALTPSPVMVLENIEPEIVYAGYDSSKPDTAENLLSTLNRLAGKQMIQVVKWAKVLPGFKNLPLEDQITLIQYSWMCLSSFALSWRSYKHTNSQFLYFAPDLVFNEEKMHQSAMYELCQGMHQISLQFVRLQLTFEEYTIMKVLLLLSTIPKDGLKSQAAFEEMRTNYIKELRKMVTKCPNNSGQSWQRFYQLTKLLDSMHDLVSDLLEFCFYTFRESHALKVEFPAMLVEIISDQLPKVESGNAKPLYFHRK

[3] = target: T2, Mineralocorticoid receptor (Homo sapiens) (UniProt P08235); assay: Antagonist efficacy for mineralocorticoid receptor (hMR); Not active; type: functional
T2 sequence (whole entry): T1 sequence (P08235 whole entry)

[4] = target: T3, Progesterone receptor (Homo sapiens) (UniProt P06401); assay: Agonist efficacy for human progesterone receptor in T47D human breast cancer cell; not active (<20% efficacy and/or >10 mM potency); type: functional, cell-based
T3 sequence (whole entry): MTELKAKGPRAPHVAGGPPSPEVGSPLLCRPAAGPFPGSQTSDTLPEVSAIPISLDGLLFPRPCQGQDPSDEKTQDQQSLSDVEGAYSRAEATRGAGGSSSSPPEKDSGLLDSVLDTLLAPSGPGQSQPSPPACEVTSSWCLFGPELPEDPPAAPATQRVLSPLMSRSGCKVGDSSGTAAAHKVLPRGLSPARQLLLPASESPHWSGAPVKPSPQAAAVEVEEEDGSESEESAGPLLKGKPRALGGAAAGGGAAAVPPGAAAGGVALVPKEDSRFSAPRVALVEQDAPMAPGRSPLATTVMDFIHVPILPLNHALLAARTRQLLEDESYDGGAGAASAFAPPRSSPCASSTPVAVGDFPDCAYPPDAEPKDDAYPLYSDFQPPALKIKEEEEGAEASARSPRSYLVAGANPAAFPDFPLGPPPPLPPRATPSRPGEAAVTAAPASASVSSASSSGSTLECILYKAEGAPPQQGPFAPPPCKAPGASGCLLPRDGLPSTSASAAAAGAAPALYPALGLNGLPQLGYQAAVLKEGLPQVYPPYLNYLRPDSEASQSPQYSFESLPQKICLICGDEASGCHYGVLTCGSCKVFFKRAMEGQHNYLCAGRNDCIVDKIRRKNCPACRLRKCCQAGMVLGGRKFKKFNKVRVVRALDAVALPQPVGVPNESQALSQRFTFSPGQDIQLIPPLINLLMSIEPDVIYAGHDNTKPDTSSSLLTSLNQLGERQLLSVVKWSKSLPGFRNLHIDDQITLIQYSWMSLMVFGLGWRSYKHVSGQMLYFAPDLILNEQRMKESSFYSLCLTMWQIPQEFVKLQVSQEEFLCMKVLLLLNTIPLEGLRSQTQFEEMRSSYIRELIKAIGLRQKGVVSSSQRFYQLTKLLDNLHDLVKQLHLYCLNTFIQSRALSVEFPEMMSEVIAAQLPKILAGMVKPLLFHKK

[5] = target: T4, Progesterone receptor (Homo sapiens, UniProt P06401); assay: Effective concentration for human progesterone receptor in T47D human breast cancer cell; not active (<20% efficacy and/or >10 mM potency); settings: cancer cell lines
T4 sequence (P06401 whole entry): T3 sequence (whole entry)

[6] = target: T4, Progesterone receptor
Description: Antagonistic activity at human progesterone receptor in CV-1 cells.

[7] = target: T4, Progesterone receptor; remark: listed apart in the source
Description: Binding affinity at human progesterone receptor.

[8] = target: T4, Progesterone receptor; remark: listed apart in the source
Description: Inhibition of human progesterone receptor activation in T47D human breast cancer cell.

[9] = target: T4, Progesterone receptor; assay: Effective concentration for antagonistic activity towards human progesterone in CV-1 cells; type: functional, cell-based

SMILES	Efficacy [1]	IC50 [2]	Efficacy [3]	Efficacy [4]	EC50 [5]	EC50 [6] [nM]	Ki [7] [nM]	IC50 [8] [nM]	IC50 ([2]; read-out: IC50)	EC50 [9] [nM]
CC1CC(C)(C)Nc2ccc3c(c21)COc1c(F)cc(F)cc1-3 (stereo not given)	inactive	Not Active	inactive	inactive	Not Active	40	45	217		
CC1=CC(C)(C)Nc2ccc3c(c21)COc1c(F)cc(Br)cc1-3	inactive	Not Active	inactive	inactive	Not Active	57	12.4	461		
CC1CC(C)(C)Nc2ccc3c(c21)COc1ccc([N+](=O)[O-])cc1-3 (stereo not given)	inactive		58%	inactive	Not Active	52	144	104	2870 nM (not active)	
CC1=CC(C)(C)Nc2ccc3c(c21)COc1c(F)cc(F)cc1-3		Not Active	inactive							25.4
CC1=CC(C)(C)Nc2ccc3c(c21)COc1c(F)cc(Cl)cc1-3		Not Active	inactive							13.5
